Experimental data reported in patent US8536165B2, “Azabiphenylaminobenzoic acid derivatives as DHODH inhibitors” (Almirall, S.A., priority 2007, dated 2013).

What was measured:
HIV = details: at concentration that can be obtained with conventional dosing; cited from earlier work
human DHODH = human DHODH (Homo sapiens (Human), UniProt Q02127); assay: Inhibition of Human DHODH Activity Assay; assay type: biochemical; details: chromogen reduction assay with DCIP, human enzyme extract, 10 min at room temperature; read-out: hDHODH IC50
Protocol: DHODH activity and its inhibition were studied using a chromogen reduction assay with DCIP (2,6-dichlorophenol-indophenol). […] Enzyme extracts (8 μl, ˜1.5 μg of human protein) were incubated in 96-well plates. The assay mixture (200 μl) contained 200 μM CoQD, 100 μM L-DHO, 120 μM DCIP in the assay buffer (100 mM HEPES pH 8.0, 150 mM NaCl, 10% Glicerol, 0.05% Triton X-100) and 2 μl of test compound. The compounds were dissolved in DMSO at a stock concentration of 1 mM, and tested at different concentrations […] to calculate an IC50 (concentration of inhibitor required for 50% of inhibition).
The reaction was initiated by adding the enzyme and then incubated for 10 min at room temperature before measuring DCIP reduction by counting a decrease in absorbance at 600 nm using standard instrumentation (Spectramax).
All reactions were carried out in duplicate and graphs, determining IC50 values for each compound, were plotted using the ABase software.

Sequence of human DHODH (Q02127 whole entry): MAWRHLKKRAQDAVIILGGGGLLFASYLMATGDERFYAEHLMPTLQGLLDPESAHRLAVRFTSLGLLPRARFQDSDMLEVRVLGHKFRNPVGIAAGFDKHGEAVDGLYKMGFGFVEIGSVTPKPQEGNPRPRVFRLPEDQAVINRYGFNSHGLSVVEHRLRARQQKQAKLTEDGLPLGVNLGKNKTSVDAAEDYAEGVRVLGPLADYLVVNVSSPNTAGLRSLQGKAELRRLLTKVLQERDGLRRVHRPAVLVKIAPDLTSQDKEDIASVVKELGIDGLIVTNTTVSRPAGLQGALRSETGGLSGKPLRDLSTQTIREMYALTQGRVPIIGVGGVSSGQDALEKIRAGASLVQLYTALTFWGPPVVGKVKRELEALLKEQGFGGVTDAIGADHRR

Structure (SMILES) | reduction of HIV replication (HIV) | IC50 (human DHODH)
Cc1oncc1C(=O)Nc1ccc(C(F)(F)F)cc1 [Leflunomide] | about 75% | –
O=C(O)c1cc(C2CC2)ccc1Nc1cnc(-c2cc(C(F)(F)F)ccc2F)nc1 [Example 104, 5-Cyclopropyl-2-(2-(2-fluoro-5-(trifluoromethyl)phenyl)pyrimidin-5-ylamino)benzoic acid] | – | 21 nM
